Test results reported in US7906522B2, “2-aminoquinazoline derivatives” (Kyowa Hakko Kirin Co., Ltd, priority 2005, dated 2011).

Columns and labels:
[1] = target: T1, Activated human p38α (Homo sapiens, UniProt Q16539); assay: p38MAP kinase inhibition test; type: biochemical; details: at a concentration of 1 μmol/L; substrate myelin basic protein, ATP 20 μmol/L, [γ-32P]ATP; read-out: enzyme inhibitory activity
T1 construct: purchased Upstate Biotechnology Inc. 14-251
In short: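 Radiometric kinase assay with myelin basic protein (20 μg/assay) as substrate, 20 μmol/L ATP plus [γ-32P]ATP, MOPS pH 7.2 with MgCl2 18.75 mmol/L. Reaction run 15 min at 30° C., stopped with phosphoric acid; 32P-MBP captured on phosphocellulose and counted by scintillation.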

T1 sequence (Q16539 whole entry): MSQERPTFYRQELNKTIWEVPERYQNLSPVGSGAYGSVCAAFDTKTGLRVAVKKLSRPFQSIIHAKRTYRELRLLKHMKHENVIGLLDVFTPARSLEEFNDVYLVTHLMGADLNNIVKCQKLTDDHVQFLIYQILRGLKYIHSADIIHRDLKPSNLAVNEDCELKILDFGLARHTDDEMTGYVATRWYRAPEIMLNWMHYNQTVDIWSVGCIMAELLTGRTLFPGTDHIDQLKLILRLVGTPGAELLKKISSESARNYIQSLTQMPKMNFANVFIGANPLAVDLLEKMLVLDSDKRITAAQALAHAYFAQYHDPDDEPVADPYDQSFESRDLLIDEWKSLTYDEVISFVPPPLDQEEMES

Row | inhibition at 1 µM [1] [%] | melting point | Compound
1 | ≥ 50 | 173 to 175 °C | CC[C@H](C)Nc1ncc2cc(-c3ccccc3Cl)c(O)cc2n1 [Compound 163, (S)-2-(sec-Butylamino)-6-(2-chlorophenyl)-7-hydroxyquinazoline]
2 | ≥ 50 | 165 °C | CC[C@H](C)Nc1ncc2cc(-c3ccccc3C)c(O)cc2n1 [Compound 169, (S)-2-(sec-Butylamino)-7-hydroxy-6-(2-methylphenyl)quinazoline]
3 | ≥ 50 | 198 to 200 °C | CCC(CC)Nc1ncc2cc(-c3ccccc3C)c(O)cc2n1 [Compound 170, 2-(3-Pentylamino)-7-hydroxy-6-(2-methylphenyl)quinazoline]
4 | ≥ 50 | 158 °C | Cc1ccccc1-c1cc2cnc(NC3CCCCC3)nc2cc1O [Compound 171, 2-(Cyclohexylamino)-7-hydroxy-6-(2-methylphenyl)quinazoline]
5 | ≥ 50 | 220 to 222 °C | Cc1ccccc1-c1cc2cnc(Nc3c(C)cccc3C)nc2cc1O [Compound 175, 2-(2,6-Dimethylanilino)-7-hydroxy-6-(2-methylphenyl)quinazoline]
6 | ≥ 50 | 226 to 227 °C | Cc1ccccc1-c1cc2cnc(Nc3c(Cl)cccc3Cl)nc2cc1O [Compound 176, 2-(2,6-Dichloroanilino)-7-hydroxy-6-(2-methylphenyl)quinazoline]
7 | ≥ 50 | 234 to 236 °C | Cc1ccccc1-c1cc2cnc(Nc3ccccc3)nc2cc1O [Compound 178, 2-Anilino-7-hydroxy-6-(2-methylphenyl)quinazoline]
8 | ≥ 50 | 130 to 133 °C | CCc1cccc(C)c1Nc1ncc2cc(-c3ccccc3C)c(O)cc2n1 [Compound 180, 2-(2-Ethyl-6-methylanilino)-7-hydroxy-6-(2-methylphenyl)quinazoline]
9 | ≥ 50 | 122 to 125 °C | COc1cc2nc(NC(C)C)ncc2cc1-c1cc(C(=O)NC2CC2)ccc1C [Compound 236, 6-(5-Cyclopropylcarbamoyl-2-methylphenyl)-2-isopropylamino-7-methoxyquinazoline]
10 | ≥ 50 | 285 to 290 °C | CS(=O)(=O)N1CCC(Nc2ncc3cc(-c4cccc(O)c4)c(O)cc3n2)CC1 [Compound 247, 7-Hydroxy-6-(3-hydroxyphenyl)-2-[1-(methylsulfonyl)piperidin-4-ylamino]quinazoline]
11 | ≥ 50 | 258 °C | CC(C)Nc1ncc2cc(-c3cccc(NC(=O)c4ccnc(N5CCOCC5)c4)c3)c(O)cc2n1 [Compound 290, 7-Hydroxy-2-isopropylamino-6-{3-[(2-morpholinopyridin-4-yl)carbonylamino]phenyl}quinazoline]
12 | ≥ 50 | 150 °C | CC(C)Nc1ncc2cc(-c3cccc(NC(=O)c4cccc(N(C)C)c4)c3)c(O)cc2n1 [Compound 291, 6-{3-[(3-Dimethylaminophenyl)carbonylamino]phenyl}-7-hydroxy-2-(isopropylamino)quinazoline]
13 | ≥ 50 | 142 °C | Cc1cc(C)c(Nc2ncc3cc(-c4ccccc4C)c(O)cc3n2)c(C)c1 [Compound 300, 7-Hydroxy-6-(2-methylphenyl)-2-(2,4,6-trimethylanilino)quinazoline]
14 | ≥ 50 | 185 °C | Cc1cccc(C)c1Nc1ncc2cc(-c3cccc(NC(=O)c4ccnc(N5CCOCC5)c4)c3)c(O)cc2n1 [Compound 312, 2-(2,6-Dimethylanilino)-7-hydroxy-6-{3-[(2-morpholinopyridin-4-yl)carbonylamino]phenyl}quinazoline]
15 | ≥ 50 | 210 to 213 °C | Cc1ccc(C(=O)NC2CC2)cc1-c1cc2cnc(Nc3c(C)cccc3C)nc2cc1O [Compound 317, 6-(5-Cyclopropylcarbamoyl-2-methylphenyl)-2-(2,6-dimethylanilino)-7-hydroxyquinazoline]
16 | ≥ 50 | 190 to 193 °C | Cc1ccc(C(=O)NC2CC2)cc1-c1cc2cnc(Nc3c(Cl)cccc3Cl)nc2cc1O [Compound 319, 6-(5-Cyclopropylcarbamoyl-2-methylphenyl)-2-(2,6-dichloroanilino)-7-hydroxyquinazoline]
17 | ≥ 50 | 156 to 160 °C | Cc1ccc(C(=O)NC2CC2)cc1-c1cc2cnc(NC(C)C)nc2cc1O [Compound 322, 6-(5-Cyclopropylcarbamoyl-2-methylphenyl)-7-hydroxy-2-(isopropylamino)quinazoline]

Row | inhibition at 1 µM [1] [%] | melting point | Compound
18 | ≥ 50 | 217 to 218 °C | Cc1ccc(C(=O)Nc2cccc(N(C)C)c2)cc1-c1cc2cnc(NC(C)C)nc2cc1O [Compound 324, 6-{5-[(3-Dimethylaminophenyl)carbamoyl]-2-methylphenyl}-7-hydroxy-2-(isopropylamino)quinazoline]
19 | ≥ 50 | 236 °C | CC(C)Nc1ncc2cc(-c3cccc(C(=O)Nc4cccc(N(C)C)c4)c3)c(O)cc2n1 [Compound 325, 6-{3-[(3-Dimethylaminophenyl)carbamoyl]phenyl}-7-hydroxy-2-(isopropylamino)quinazoline]
20 | ≥ 50 | 248 to 249 °C | CC(C)Nc1ncc2cc(-c3cccc(C(=O)Nc4cccc(N5CCOCC5)c4)c3)c(O)cc2n1 [Compound 328, 7-Hydroxy-2-isopropylamino-6-{3-[(3-morpholinophenyl)carbamoyl]phenyl}quinazoline]
21 | ≥ 50 | 251 to 253 °C | CC(C)Nc1ncc2cc(-c3cccc(C(=O)Nc4cccc(N5CCCC5)c4)c3)c(O)cc2n1 [Compound 330, 7-Hydroxy-2-isopropylamino-6-{3-[3-(pyrrolidin-1-yl)phenylcarbamoyl]phenyl}quinazoline]
22 | ≥ 50 | 217 to 219 °C | CC(C)Nc1ncc2cc(-c3cccc(NC(=O)c4cc(F)cc(N5CCOCC5)c4)c3)c(O)cc2n1 [Compound 332, 6-[3-(3-Fluoro-5-morpholinobenzoylamino)phenyl]-7-hydroxy-2-(isopropylamino)quinazoline]
23 | ≥ 50 | 250 °C (dec.) | CC(C)Nc1ncc2cc(-c3cccc(C(=O)NC4CC4)c3)c(O)cc2n1 [Compound 334, 6-[3-(Cyclopropylcarbamoyl)phenyl]-7-hydroxy-2-(isopropylamino)quinazoline]
24 | ≥ 50 | 248 to 249 °C | CC(C)Nc1ncc2cc(-c3cccc(NC(=O)c4ccnc(N5CCCC5)c4)c3)c(O)cc2n1 [Compound 336, 7-Hydroxy-2-isopropylamino-6-{3-[2-(pyrrolidin-1-yl)pyridin-4-ylcarbonylamino]phenyl}quinazoline]
25 | ≥ 50 | 280 to 281 °C | COc1ccc(C(F)(F)F)cc1NC(=O)c1ccc(C)c(-c2cc3cnc(NC(C)C)nc3cc2O)c1 [Compound 338, 7-Hydroxy-2-isopropylamino-6-{5-[(2-methoxy-5-trifluoromethylphenyl)carbamoyl]-2-methylphenyl}quinazoline]
26 | ≥ 50 | 230 °C | CC(C)Nc1ncc2cc(-c3cccc(NC(=O)c4cccc(N5CCOCC5)c4)c3)c(O)cc2n1 [Compound 340, 7-Hydroxy-2-isopropylamino-6-[3-(3-morpholinobenzoylamino)phenyl]quinazoline]
27 | ≥ 50 | 255 to 257 °C | CC(C)Nc1ncc2cc(-c3cccc(C(=O)Nc4ccnc(N5CCOCC5)c4)c3)c(O)cc2n1 [Compound 342, 7-Hydroxy-2-isopropylamino-6-{3-[(2-morpholinopyridin-4-yl)carbamoyl]phenyl}quinazoline]
28 | ≥ 50 | 175 to 177 °C | Cc1c(F)cc(C(=O)NC2CC2)cc1-c1cc2cnc(NC(C)C)nc2cc1O [Compound 344, 6-(5-Cyclopropylcarbamoyl-3-fluoro-2-methylphenyl)-7-hydroxy-2-(isopropylamino)quinazoline]
29 | ≥ 50 | 169 to 172 °C | Cc1ccc(NC(=O)c2ccnc(N3CCOCC3)c2)cc1-c1cc2cnc(NC(C)C)nc2cc1O [Compound 346, 7-Hydroxy-2-isopropylamino-6-{2-methyl-5-[(2-morpholinopyridin-4-yl)carbonylamino]phenyl}quinazoline]
30 | ≥ 50 | 251 to 253 °C | COc1c(NC(=O)c2ccc(C)c(-c3cc4cnc(NC(C)C)nc4cc3O)c2)cc(C(C)(C)C)cc1NS(C)(=O)=O [Compound 348, 6-{5-[(5-tert-Butyl-2-methoxy-3-methylsulfonylaminophenyl)carbamoyl]-2-methylphenyl}-7-hydroxy-2-(isopropylamino)quinazoline]
31 | ≥ 50 | 226 to 227 °C | CC(C)Nc1ncc2cc(-c3cccc(NC(=O)c4ccnc(N5CCCCC5)c4)c3)c(O)cc2n1 [Compound 349, 7-Hydroxy-2-isopropylamino-6-{3-[(2-piperidinopyridin-4-yl)carbonylamino]phenyl}quinazoline]
32 | ≥ 50 | 229 °C | CC(C)Nc1ncc2cc(-c3cccc(NC(=O)c4cc(F)cc(N5CCCC5)c4)c3)c(O)cc2n1 [Compound 351, 6-{3-[3-Fluoro-5-(pyrrolidin-1-yl)benzoylamino]phenyl}-7-hydroxy-2-(isopropylamino)quinazoline]
33 | ≥ 50 | 158 to 161 °C | CONC(=O)c1ccc(C)c(-c2cc3cnc(NC(C)C)nc3cc2O)c1 [Compound 353, 7-Hydroxy-2-isopropylamino-6-(5-methoxycarbamoyl-2-methylphenyl)quinazoline]
